What was measured:
[1] = system: C1-S cells; test: Total protein in cell lysates (Bradford assay); type: cell-based, mouse; settings: increasing concentration
[2] = system: C1-S C2C12 mouse myoblasts; test: Firefly luciferase reporter without CUG repeats (control); type: cell-based; settings: C1-S cells (no CUG repeats), 3 days
Protocol: (§1) The ability of selected compounds to inhibit the formation of CUG^exp RNA-MBNL1 complexes in mouse myoblasts was then evaluated. […] Cells were grown in 100 μl growth media in 96-well plates to 10% confluency. […] Culture media was replaced with fresh media containing 1% WST-1 reagent (Roche). After 15-20 minutes of incubation, the WST-1 containing media was transferred to a clear 96-well plate, and the absorbances at 450 nm and 690 nm measured with a PerkinElmer EnVision Plate Reader. Cells were gently rinsed (1×PBS) before incubation at -20° C. in 100 μl 1X Passive Lysis Buffer (Promega) for 10 minutes. Immediately before luminescence detection, 20 μl of each lysate was mixed with 50 μl of Luciferase Assay Reagent (Promega) in a fresh opaque-white 96-well plate. Luminescence values were normalized for well-to-well variations in viable cell numbers by dividing by the corresponding (A450 nm-[…] nm) values of the WST-1 containing media. […] Thus, CUG^exp binding compounds are capable of releasing the sequestered mRNA transcripts into the cytoplasm for translation.

[3] = system: C5-14 C2C12 mouse myoblasts ((CUG)800 RNA-MBNL1 complexes); test: Firefly luciferase reporter with ~800 CUG repeats in hDMPK 3'UTR; type: cell-based; settings: C5-14 myoblasts, 3 days; compound 4 0-100 μM, compound 11 0-200 μM
Protocol: as §1

[4] = system: C1-S cells; test: WST-1 viability; type: cell-based, mouse; settings: C1-S cells at the assay concentrations
Protocol: The ability of selected compounds to inhibit the formation of CUG^exp RNA-MBNL1 complexes in mouse myoblasts was then evaluated. For this study, C2C12 mouse myoblasts engineered to stably express a firefly luciferase transcript with or without ˜800 uninterrupted CUG repeats in an hDMPK 3′UTR (clones C5-14 and C1-S, respectively) were used. Cells were grown in 100 μl growth media in 96-well plates to ˜10% confluency. Compound was added at various concentrations in triplicate to both C1-S and C5-14 cultures, and incubated for 3 days. Culture media was replaced with fresh media containing 1% WST-1 reagent (Roche). After ˜15-20 minutes of incubation, the WST-1 containing media was transferred to a clear 96-well plate, and the absorbances at 450 nm and 690 nm measured with a PerkinElmer EnVision Plate Reader. Cells were gently rinsed (1×PBS) before incubation at −20° C. in 100 μl 1X Passive Lysis Buffer (Promega) for 10 minutes. Immediately before luminescence detection, 20 μl of each lysate was mixed with 50 μl of Luciferase Assay Reagent (Promega) in a fresh opaque-white 96-well plate. Luminescence values were normalized for well-to-well variations in viable cell numbers by dividing by the corresponding (A450 nm-A690 nm) values of the WST-1 containing media.

[5] = system: HSA^LR transgenic mice; test: Acute toxicity observed in treated mice; type: in vivo, mouse; settings: 40 mg/kg intraperitoneally once per day for 5 days
Protocol: Mouse handling and experimental procedures were conducted in accordance with the Association for Assessment and Accreditation of Laboratory Animal Care. HSA^LR transgenic mice in line 20b expressing human skeletal actin RNA with 250 CUG repeats in the 3′ UTR were previously described (Mankodi, “Myotonic Dystrophy in Transgenic Mice Expressing an Expanded CUG Repeat,” Science 289:1769-1772 (2000), which is hereby incorporated by reference in its entirety). Age- and gender-matched HSA^LR mice (12-16 weeks old) were injected intraperitoneally with 40 mg/kg of compounds or saline alone once per day for 5 days. Mice were sacrificed one day after the last injection, and vastus muscle was obtained for splicing analysis. RNA extraction, cDNA preparation, and RT-PCR were performed as described previously. The PCR products were electrophoresed on agarose gels for separation, and scanned with a laser fluorimager (Typhoon, GE Healthcare). Quantitative analysis of amplified products was performed by ImageQuant software (Molecular Dynamics). Differences between two groups were evaluated by unpaired Student's t-test.

CCc1nc2cc3ccccc3cc2cc1C(=O)N1CCC[C@H]1C(=O)N[C@@H](C/C=C\C[C@H](NC(=O)[C@@H]1CCCN1C(=O)c1cc2cc3ccccc3cc2nc1CC)C(=O)N[C@@H](CCCCN)C(=O)NCCCN)C(=O)N[C@@H](CCCCN)C(=O)NCCCN [Compound 4]
concentration of total protein in cell lysates [1]: decreasing level of protein expression | luciferase signal [2]: concentration-dependent decrease in luciferase activity | luciferase activity [3]: concentration-dependent increases in luciferase activity | WST-1 viability [4]: no observable toxicity | acute toxicity effects in mice [5]: significant acute toxicity effects

— patent publication US20140050778A1, “NUCLEIC ACID BINDING COMPOUNDS, METHODS OF MAKING, AND USE THEREOF” (UNIVERSITY OF ROCHESTER, priority 2010, published 2014)
